What all share (type): cell-based, human
Test [1] has as its system Colo375FG metastatic pancreatic adenocarcinoma cells. Briefly: Live cell number (Coulter counter, methylene blue, PI exclusion). As to the method:
Colo375FG metastatic pancreatic adenocarcinoma cells are cultured in Dulbecco Modified Eagle Medium with 10% fetal bovine serum. Cells are plated at 10^5 per P100 or at 10^4 per P60 (for assays requiring up to 3 days of culture), in the presence of different concentrations of BiPar compounds and other agents, or DMSO control. Following treatment, the number of attached cells is measured using Coulter counter, and by staining with 1% methylene blue. Methylene blue is dissolved in 50%-50% mixture of Methanol and water. Cells are plated in 24- or 96-well plates and treated with compounds as indicated, then media are aspirated, cells are washed with PBS, fixed in methanol for 5-10 min, washed and the plates are allowed to dry completely. Methylene blue solution is added to wells and plates are incubated for 5 min. Staining solution is removed and plates are washed with dH2O. After plates are completely dry, a small amount of 1N HCl is added to each well to extract the methylene blue. The OD readout at 600 nm and a calibration curve are used to determine cell number.
IIIg (6-nitro-5-iodo-benzopyrone) is dissolved directly from dry powder to 10 mM stock solution in DMSO for each separate experiment, and then the entire volume of the stock solution is used to prepare working concentrations in cell culture medium to avoid any possibility of precipitation and the corresponding loss of compound. Control experiments are carried out with the matching volume/concentration of the vehicle (DMSO).
After the addition of drugs and incubation, cells are trypsinized and aliquots of the samples are taken for counting and PI (Propidium Iodide) exclusion assay. One part of the cells is centrifuged and resuspended in 0.5 ml ice-cold PBS containing 5 μg/ml of PI. The other part of the cells is fixed in ice-cold 70% ethanol and stored in a freezer overnight. For cell cycle analysis, cells are stained with propidium iodide (PI) by standard procedures. Cellular DNA content is determined by flow cytometry using BD LSRII FACS, and the percentages of cells in G1, S or G2/M are determined using ModFit software.
Colo375FG metastatic pancreatic adenocarcinoma cells are obtained from ATCC and cultured in Dulbecco Modified Eagle Medium with 10% fetal bovine serum. Cells are plated at 10^5 cells per P100 cell culture dish or at 10^4 cells per P60 cell culture dish in the presence of different concentrations compounds or DMSO control. Following treatment, the number of attached cells is measured using Coulter counter, and by staining with 1% methylene blue. Methylene blue is dissolved in 50%-50% mixture of Methanol and water. Cells are plated in 24- or 96-well plates and treated as planned, media are aspirated, cells are washed with PBS, fixed in methanol for 5-10 min, methanol is aspirated and plates are allowed to dry completely. Methylene blue solution is added to wells and plates are incubated for 5 min. Staining solution is removed and plates are washed with dH2O until washes are no longer blue. After plates are completely dry, a small amount of 1N HCl is added to each well to extract the methylene blue. The OD readout at 600 nm and a calibration curve are used to determine cell number.
Compounds of the invention are dissolved directly from dry powder to 10 mM stock solution in DMSO for each separate experiment. Control experiments are carried out with the matching volume/concentration of the vehicle (DMSO). In these controls, the cells show no changes in their growth or cell cycle distribution.
After the addition of drugs and incubation, cells are trypsinized and aliquots of the samples are taken for counting and PI (Propidium Iodide) exclusion assay. One part of the cells is centrifuged and resuspended in 0.5 ml ice-cold PBS containing 5 ug/ml of PI. The other part of the cells is fixed in ice-cold 70% ethanol and stored in a freezer overnight. For cell cycle analysis, cells are stained with propidium iodide (PI) by standard procedures. […]

Test [2] has the same test system. The test can be described thus: TUNEL apoptosis assay (flow cytometry). The method, then: Cells are labeled for apoptosis with the “In Situ Cell Death Detection Kit, Fluorescein” (Roche Diagnostics Corporation, Roche Applied Science, Indianapolis, Ind.). Briefly, fixed cells are centrifuged and washed once in phosphate-buffered saline (PBS) containing 1% bovine serum albumin (BSA), then resuspended in 2 ml permeabilization buffer (0.1% Triton X-100 and 0.1% sodium citrate in PBS) for 25 min at room temperature and washed twice in 0.2 ml PBS/1% BSA. The cells are resuspended in 50 μl TUNEL reaction mixture (TdT enzyme and labeling solution) and incubated for 60 min at 37° C. in a humidified dark atmosphere in an incubator. The labeled cells are washed once in PBS/1% BSA, then resuspended in 0.5 ml ice-cold PBS containing 1 μg/ml 4′,6-diamidino-2-phenylindole (DAPI) for at least 30 min. All cell samples are analyzed with a BD LSR II (BD Biosciences, San Jose, Calif.).
The cells are labeled for apoptosis with the “In Situ Cell Death Detection Kit, Fluorescein” (Roche Diagnostics Corporation, Roche Applied Science, Indianapolis, Ind.). Briefly, fixed cells are centrifuged and washed once in phosphate-buffered saline (PBS) containing 1% bovine serum albumin (BSA), then resuspended in 2 ml permeabilization buffer (0.1% Triton X-100 and 0.1% sodium citrate in PBS) for 25 minutes at room temperature and washed twice in 0.2 ml PBS/1% BSA. The cells are resuspended in 50 μl TUNEL reaction mixture (TdT enzyme and labeling solution) and incubated for 60 min at 37° C. in a humidified dark atmosphere in an incubator. The labeled cells are washed once in PBS/1% BSA, then resuspended in 0.5 ml ice-cold PBS containing 1 μg/ml 4,6-diamidino-2-phenylindole (DAPI) for at least 30 min. All cell samples are analyzed with a BD LSR II (BD Biosciences, San Jose, Calif.).
On the technique in general: In flow cytometry, cells or beads pass a laser one at a time.

Test [3] has the same test system. The test can be described thus: Bromodeoxyuridine (BrdU) labeling assay (flow cytometry). Conditions: Compound IIIc 12.5 mM; one value printed beside OxaliPt 0 10 20 mM, OxaliPt level not assignable. As to the method:
50 μl of BrdU (Sigma Chemical Co., St. Louis, Mo.) stock solution (1 mM) is added to give 10 μM BrdU final concentration. The cells are incubated for 30 min at 37° C. and fixed in ice-cold 70% ethanol and stored in a cold room (4° C.) overnight. Fixed cells are centrifuged and washed once in 2 ml PBS, then resuspended in 0.7 ml of denaturation solution (0.2 mg/ml pepsin in 2 N HCl) for 15 min at 37° C. in the dark and suspended with 1.04 ml 1M Tris buffer (Trizma base, Sigma Chemical Co.) to terminate the hydrolysis and washed in 2 ml PBS.
(§1) Cells are resuspended in 100-μl anti-BrdU antibody (DakoCytomation, Carpinteria, Calif.) with 1:100 dilution in TBFP permeable buffer (0.5% Tween-20, 1% bovine serum albumin and 1% fetal bovine serum in PBS) and incubated for 25 min at room temperature in the dark and washed in 2 ml PBS. The primary antibody-labeled cells are resuspended in 100 μl Alexa Fluor F(ab′)2 fragment of goat anti-mouse IgG (H+L) (2 mg/mL) (Molecular Probes, Eugene, Oreg.) with 1:200 dilution in TBFP permeable buffer and incubated for 25 min at room temperature in the dark and washed in 2 ml PBS, then resuspended in 0.5 ml ice-cold PBS containing 1 μg/ml 4′,6-diamidino-2-phenylindole (DAPI) for at least 30 min. All cell samples are analyzed with a BD LSR II (BD Biosciences, San Jose, Calif.).
as §1, with “50 μl of BrdU (Sigma Chemical Co., St. Louis, Mo.) stock solution (1 mM) is added to give 10 μM BrdU final concentration. The cells are incubated for 30 min at 37 °C and fixed in ice-cold 70% ethanol and stored in a cold room (4 °C) overnight. Fixed cells are centrifuged and washed once in 2 ml PBS, then resuspended in 0.7 ml of denaturation solution (0.2 mg/ml pepsin in 2 N HCl) for 15 min at 37° C. in the dark and suspended with 1.04 ml 1M Tris buffer (Trizma base, Sigma Chemical Co.) and washed in 2 ml PBS. Then cells” for “Cells”

The mark [4] stands for this setting: Compound IIIc 12.5 mM, OxaliPt 0 mM.
Where [5] appears, read: combination: Compound IIIc 12.5 mM + OxaliPt 10 mM.
The mark [6] stands for this setting: combination: Compound IIIc 12.5 mM + OxaliPt 20 mM.

Turning to `O=c1ccc2c(CCCCN3CC=C(c4ccccc4)CC3)c([N+](=O)[O-])ccc2o1` [IIIc], the “Live Cell (%)” value stood at 54% in test [1] (setting [4]), 33% in test [1] (setting [5]) and 25% in test [1] (setting [6]). Also, the figures for the “Dead cells TUNEL (%)” value in test [2] (setting [4]), in test [2] (setting [5]) and in test [2] (setting [6]) were 2.7%, 16.1% and 28.2%, respectively. In addition, in test [3], the “Cells in S-phase of cell cycle (% BrdU+)” value was found to be 73.87%.

These data come from patent US20090149417A1, “Methods and compositions for the treatment of cancer using benzopyrone-type PARP inhibitors” (priority 2007, published 2009).
